Values of other authors in patent publication US20090202442A1, “Enerceutical activation of the alternative cellular energy (ACE) pathway in therapy of diseases” (priority 2008, published 2009).

System: herpes simplex virus (HSV), herpes zoster virus (HZV) and human papillomavirus (HPV) infections

## Cc1cc2nc3ccc(N(C)C)cc3nc2cc1N.Cl [neutral red]
Neutral red dye triggered UV fluorescence, HSV, HZV, HPV lesions
  healing of active skin lesions: successfully used in expediting the healing
Patients with prior history of recurrent herpes, treated when no active lesion present
  future outbreaks of recurrent herpes: successfully used in preventing future outbreaks
